Assay results: patent US10807970B2 (priority 2016, dated 2020)

Target: human σ1 receptor (Homo sapiens, UniProt Q99720)
Assay: Human σ1 receptor radioligand assay ([3H](+)-pentazocine, transfected HEK-293 membranes)
Assay type: binding
Design: μ and σ1 dual binding: key to the marks not given beside the values
Conditions: one class symbol for both Ki-σ1 (human σ1 receptor, A1) and Ki-μ (human μ-opioid receptor, A2)
Method in brief: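 Membranes from HEK-293 cells transfected with human σ1 receptor (7 μg) incubated with 5 nM [3H](+)-pentazocine in 50 mM Tris-HCl pH 8, 120 min at 37° C. Non-specific binding defined with 10 μM haloperidol. Bound radioligand separated by filtration, washed with ice-cold 10 mM Tris-HCl pH 7.4, and counted by scintillation.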

human σ1 receptor, sequence (Q99720 whole entry): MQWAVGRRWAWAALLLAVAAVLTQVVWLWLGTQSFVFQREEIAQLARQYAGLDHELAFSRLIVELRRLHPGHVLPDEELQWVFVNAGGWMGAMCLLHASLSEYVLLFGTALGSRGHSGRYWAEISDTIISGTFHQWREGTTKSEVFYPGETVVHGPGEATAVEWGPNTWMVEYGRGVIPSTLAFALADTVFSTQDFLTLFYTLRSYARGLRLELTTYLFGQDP

Q: How did the “μ and σ1 dual binding” value turn out when CC(C)OCCN1CCN(C2(C)CCOC(C)(C)C2)CC1 (stereo not shown) [Example 37, 1-(2-isopropoxyethyl)-4-(2,2,4-trimethyltetrahydro-2H-pyran-4-yl)piperazine] was run?
A: ++

Q: With CC(C)OCCN1CCN([C@@]2(C(=O)c3ccccn3)CCO[C@@H](C)C2)CC1 [Example 190, ((2S,4S)-4-(4-(2-isopropoxyethyl)piperazin-1-yl)-2-methyltetrahydro-2H-pyran-4-yl)(pyridin-2-yl)methanone] as the compound, how does the “μ and σ1 dual binding” value read?
A: ++

Q: How did the “μ and σ1 dual binding” value turn out when CC(C)CN1CCN(C2(C(=O)c3ccccc3)CCOC(C)(C)C2)CC1 (stereo not shown) [Example 11, (4-(4-isobutylpiperazin-1-yl)-2,2-dimethyltetrahydro-2H-pyran-4-yl)(phenyl)methanone] was run?
A: ++

Q: With CCC1(N2CCN(Cc3ccc(C#N)cc3)CC2)CCOCC1 [Example 174, 4-((4-(4-ethyltetrahydro-2H-pyran-4-yl)piperazin-1-yl)methyl)benzonitrile] as the compound, how does the “μ and σ1 dual binding” value read?
A: ++

Q: Which “μ and σ1 dual binding” value does the source give for CC1(C)CC(C)(N2CCN(CCc3ccccc3)CC2)CCO1 (stereo not shown) [Example 53, 1-phenethyl-4-(2,2,4-trimethyltetrahydro-2H-pyran-4-yl)piperazine] here?
A: ++

Q: With CC(C)CCN1CCN([C@@]2(C(=O)c3ccccn3)CCO[C@@H](C)C2)CC1 [Example 247, ((2S,4S)-4-(4-isopentylpiperazin-1-yl)-2-methyltetrahydro-2H-pyran-4-yl)(pyridin-2-yl)methanone] as the compound, how does the “μ and σ1 dual binding” value read?
A: ++

Q: How did the “μ and σ1 dual binding” value turn out when CC(C)(O)CCN1CCN(C2(C(=O)c3ccccn3)CCOC(C)(C)C2)CC1 (stereo not shown) [Example 90, (4-(4-(3-hydroxy-3-methylbutyl)piperazin-1-yl)-2,2-dimethyltetrahydro-2H-pyran-4-yl)(pyridin-2-yl)methanone] was run?
A: ++

Q: CC(C)COCCN1CCN([C@@]2(C(=O)c3ccccn3)CCOC(C)(C)C2)CC1 [Example 136, (S)-(4-(4-(2-isobutoxyethyl)piperazin-1-yl)-2,2-dimethyltetrahydro-2H-pyran-4-yl)(pyridin-2-yl)methanone] was tested. Which “μ and σ1 dual binding” value did it give?
A: ++

Q: How did the “μ and σ1 dual binding” value turn out when CCC1(N2CCN(Cc3ccccc3)CC2)CCOC(C)(C)C1 (stereo not shown) [Example 38, 1-benzyl-4-(4-ethyl-2,2-dimethyltetrahydro-2H-pyran-4-yl)piperazine] was run?
A: ++

Q: Which “μ and σ1 dual binding” value does the source give for CC1(C)CC(C(=O)c2ccccn2)(N2CCN(CCOCC(F)(F)F)CC2)CCO1 (stereo not shown) [Example 69, (2,2-dimethyl-4-(4-(2-(2,2,2-trifluoroethoxy)ethyl)piperazin-1-yl)tetrahydro-2H-pyran-4-yl)(pyridin-2-yl)methanone] here?
A: ++

Q: With CC(C)CN1CCC(C2(C(=O)c3ccccn3)CCOC(C)(C)C2)CC1 (stereo not shown) [Example 102, (4-(1-isobutylpiperidin-4-yl)-2,2-dimethyltetrahydro-2H-pyran-4-yl)(pyridin-2-yl)methanone] as the compound, how does the “μ and σ1 dual binding” value read?
A: ++

Q: Which “μ and σ1 dual binding” value does the source give for CC[C@@]1(N2CCN(CCc3ccccc3)CC2)CCOC(C)(C)C1 [Example 113, (R) 1-(4-ethyl-2,2-dimethyltetrahydro-2H-pyran-4-yl)-4-phenethylpiperazine] here?
A: ++

Q: How did the “μ and σ1 dual binding” value turn out when C[C@@H]1C[C@@](C(=O)c2ccccn2)(N2CCN(Cc3ccccc3)CC2)CCO1 [Example 28] was run?
A: ++

Q: Which “μ and σ1 dual binding” value does the source give for CC(C)CCN(C)[C@@H]1CCN([C@]2(C(=O)c3ccccn3)CCOC(C)(C)C2)C1 [Example 149, ((R)-4-((R)-3-(isopentyl(methyl)amino)pyrrolidin-1-yl)-2,2-dimethyltetrahydro-2H-pyran-4-yl)(pyridin-2-yl)methanone] here?
A: ++

Q: Which “μ and σ1 dual binding” value does the source give for CCC1(N2CCN(CCC(C)C)CC2)CCOCC1 [Example 180, 1-(4-ethyltetrahydro-2H-pyran-4-yl)-4-isopentylpiperazine] here?
A: ++

Q: CC(C)CN1CCN(C2(Cc3ccccc3)CCOC3(CCCC3)C2)CC1 (stereo not shown) [Example 123, 1-(9-benzyl-6-oxaspiro[4.5]decan-9-yl)-4-isobutylpiperazine] was tested. Which “μ and σ1 dual binding” value did it give?
A: ++

Q: For CCC1(N2CCN(Cc3ccccc3)CC2)CCOCC1 [Example 31, 1-benzyl-4-(4-ethyltetrahydro-2H-pyran-4yl)piperazine], which “μ and σ1 dual binding” value is on record?
A: ++

Same assay, conditions: one class symbol for both Ki-σ1 (human σ1 receptor, A1) and Ki-μ (human μ-opioid receptor, A2); read-out: μ and σ1 dual binding

Q: How did the Ki turn out when CC(C)OCCN1CCN([C@]2(C(=O)c3ccccn3)CCOC(C)(C)C2)CC1 [Example 135, (R)-(4-(4-(2-isopropoxyethyl)piperazin-1-yl)-2,2-dimethyltetrahydro-2H-pyran-4-yl)(pyridin-2-yl)methanone] was run?
A: < 500 nM

Q: CC(C)OCCN1CCN(C2(C(=O)c3ccccn3)CCOC(C)(C)C2)CC1 (stereo not shown) [Example 65, (4-(4-(2-isopropoxyethyl)piperazin-1-yl)-2,2-dimethyltetrahydro-2H-pyran-4-yl)(pyridin-2-yl)methanone] was tested. Which Ki did it give?
A: < 500 nM

Q: How did the Ki turn out when CC[C@]1(N2CCN(Cc3ccc(C#N)cc3)CC2)CCO[C@H](C)C1 [Example 251, 4-((4-((2R,4S)-4-ethyl-2-methyltetrahydro-2H-pyran-4-yl)piperazin-1-yl)methyl)benzonitrile] was run?
A: > 500 nM

Q: CC(C)OCCN1CCN([C@]2(C(=O)c3ccccn3)CCO[C@@H](C)C2)CC1 [Example 96] was tested. Which Ki did it give?
A: > 500 nM

Q: CC(C)OCCN1CCN([C@]2(C(=O)c3ccccn3)CCOC(C)(C)C2)CC1 [Example 139, (R)-(4-(4-(2-isopropoxyethyl)piperazin-1-yl)-2,2-dimethyltetrahydro-2H-pyran-4-yl)(pyridin-2-yl)methanone] was tested. Which Ki did it give?
A: > 500 nM

Q: How did the Ki turn out when CC1(C2CCN(Cc3ccccc3)CC2)CCOCC1 [Example 165, 1-benzyl-4-(4-methyltetrahydro-2H-pyran-4-yl)piperidine] was run?
A: > 500 nM

Same assay, conditions: μ and σ1 dual binding, one class symbol for both Ki-σ1 (human σ1 receptor, A1) and Ki-μ (human μ-opioid receptor, A2)

Q: Which Ki does the source give for CC(C)CCN1CCN(C2(C(=O)c3ccccn3)CCOC(C)(C)C2)CC1 (stereo not shown) [Example 64, (4-(4-isopentylpiperazin-1-yl)-2,2-dimethyltetrahydro-2H-pyran-4-yl)(pyridin-2-yl)methanone] here?
A: < 500 nM

Q: With CC(C)CN1CCC(C2(c3ccccn3)CCOC(C)(C)C2)CC1 (stereo not shown) [Example 126, 2-(4-(1-isobutylpiperidin-4-yl)-2,2-dimethyltetrahydro-2H-pyran-4-yl)pyridine] as the compound, how does the Ki read?
A: > 500 nM

Q: Which Ki does the source give for C=C(C)CCN1CCN(C2(C(=O)c3ccccn3)CCOC(C)(C)C2)CC1 (stereo not shown) [Example 118, (2,2-Dimethyl-4-(4-(3-methylbut-3-enyl)piperazin-1-yl)tetrahydro-2H-pyran-4-yl)(pyridin-2-yl)methanone] here?
A: < 500 nM

Q: CC(C)OCCN1CCC(C2(c3ccccn3)CCOC(C)(C)C2)CC1 (stereo not shown) [Example 75, 2-(4-(1-(2-isopropoxyethyl)piperidin-4-yl)-2,2-dimethyltetrahydro-2H-pyran-4-yl)pyridine] was tested. Which Ki did it give?
A: > 500 nM

Q: Which Ki does the source give for CC(C)CCN1CCCN(C2(C(=O)c3ccccn3)CCOC(C)(C)C2)CC1 (stereo not shown) [Example 86, (4-(4-isopentyl-1,4-diazepan-1-yl)-2,2-dimethyltetrahydro-2H-pyran-4-yl)(pyridin-2-yl)methanone] here?
A: < 100 nM

Q: Which Ki does the source give for CC[C@]1(N2CCN(CCOC(C)C)CC2)CCO[C@@H](C)C1 [Example 157, 1-((2S,4S)-4-ethyl-2-methyltetrahydro-2H-pyran-4-yl)-4-(2-isopropoxyethyl)piperazine] here?
A: < 100 nM

Q: With CC1(C)CC(C(=O)c2ccccn2)(N2CCN(CCC3CC3)CC2)CCO1 (stereo not shown) [Example 128, (4-(4-(2-cyclopropylethyl)piperazin-1-yl)-2,2-dimethyltetrahydro-2H-pyran-4-yl)(pyridin-2-yl)methanone] as the compound, how does the Ki read?
A: < 500 nM

Q: How did the Ki turn out when CC(c1ccccc1)N1CCN(C2(C(=O)c3ccccn3)CCOC(C)(C)C2)CC1 (stereo not shown) [Example 62, (2,2-dimethyl-4-(4-(1-phenylethyl)piperazin-1-yl)tetrahydro-2H-pyran-4-yl)(pyridin-2-yl)methanone] was run?
A: < 500 nM

Q: With CC(C)C1(N2CCN(Cc3ccccc3)CC2)CCOC(C)(C)C1 (stereo not shown) [Example 43, 1-benzyl-4-(4-isopropyl-2,2-dimethyltetrahydro-2H-pyran-4-yl)piperazine] as the compound, how does the Ki read?
A: < 500 nM

Q: With CCC1(N2CCN(CCc3cc(F)ccc3F)CC2)CCOC(C)(C)C1 (stereo not shown) [Example 99, 1-(2,5-difluorophenethyl)-4-(4-ethyl-2,2-dimethyltetrahydro-2H-pyran-4-yl)piperazine] as the compound, how does the Ki read?
A: < 500 nM

Q: c1ccc(CN2CCN(C3(c4ccccc4)CCOC4(CCCC4)C3)CC2)cc1 (stereo not shown) [Example 32, 1-benzyl-4-(9-phenyl-6-oxaspiro[4.5]decan-9-yl)piperazine] was tested. Which Ki did it give?
A: < 100 nM

Q: For CC(C)CN1CCN(C2(C(=O)c3ccccn3)CCOC3(CCCC3)C2)CC1 (stereo not shown) [Example 51, (9-(4-isobutylpiperazin-1-yl)-6-oxaspiro[4.5]decan-9-yl)(pyridin-2-yl)methanone], which Ki is on record?
A: < 500 nM

Q: With C[C@H]1C[C@](C(=O)c2ccccn2)(C2CCN(Cc3ccccc3)CC2)CCO1 [Example 153] as the compound, how does the Ki read?
A: < 500 nM

Q: CC(C)OCCN1CCC([C@@]2(C(=O)c3ccccn3)CCO[C@@H](C)C2)CC1 [Example 248, ((2S,4R)-4-(1-(2-isopropoxyethyl)piperidin-4-yl)-2-methyltetrahydro-2H-pyran-4-yl)(pyridin-2-yl)methanone] was tested. Which Ki did it give?
A: < 500 nM

Q: For CC1(C)CC(C(=O)c2ccccn2)(N2CCN(Cc3ccccc3)CC2)CCO1 (stereo not shown) [Example 1, (4-(4-benzylpiperazin-1-yl)-2,2-dimethyltetrahydro-2H-pyran-4-yl)(pyridin-2-yl)methanone], which Ki is on record?
A: < 100 nM

Q: How did the Ki turn out when CC(C)OCCCN1CCN(C2(C(=O)c3ccccn3)CCOC(C)(C)C2)CC1 (stereo not shown) [Example 71, (4-(4-(3-isopropoxypropyl)piperazin-1-yl)-2,2-dimethyltetrahydro-2H-pyran-4-yl)(pyridin-2-yl)methanone] was run?
A: < 500 nM

Q: With O=C(c1cccc(C(F)(F)F)n1)C1(N2CCN(Cc3ccccc3)CC2)CCOC2(CCCC2)C1 (stereo not shown) [Example 6, (9-(4-benzylpiperazin-1-yl)-6-oxaspiro[4.5]decan-9-yl)(6-(trifluoromethyl)pyridin-2-yl)methanone] as the compound, how does the Ki read?
A: < 100 nM
